Laboratory results from ChEMBL document CHEMBL1201862, “PubChem BioAssay data set” (2004).
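Method: 48-hour compound exposure of cells in 96-well plates, five concentrations, linear interpolation of endpoints. Here, GI50 denotes the concentration required for 50% inhibition of growth.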 Calls of active or inactive are those of the source. No stated cut-off is given here; in the data, active = GI50 up to about 1.1 µM and inactive = higher.

What was measured:
Experiment in all cases: NCI tumour cell line growth inhibition, 48 h
[1] = test system: HCT-116
[2] = test system: LOX IMVI
[3] = test system: K562
[4] = test system: CCRF-CEM
[5] = test system: OVCAR-4
[6] = test system: NCI-H460
[7] = test system: UACC-62
[8] = test system: ACHN
[9] = test system: UACC-257
[10] = test system: SF-295
[11] = test system: SNB-19
[12] = test system: HOP-92
[13] = test system: NCI-H226
[14] = test system: MCF7
[15] = test system: MDA-MB-435
[16] = test system: NCI-H522
[17] = test system: SK-MEL-2
[18] = test system: HCC 2998
[19] = test system: TK-10
[20] = test system: KM12
[21] = test system: MDA-MB-231
[22] = test system: EKVX
[23] = test system: UO-31
[24] = test system: HCT-15
[25] = test system: RPMI-8226
[26] = test system: Hs-578T
[27] = test system: HOP-62
[28] = test system: OVCAR-3
[29] = test system: MOLT-4
[30] = test system: OVCAR-8
[31] = test system: SN12C
[32] = test system: NCI-H23
[33] = test system: A549
[34] = test system: Malme-3M
[35] = test system: PC-3
[36] = test system: T47D
[37] = test system: COLO 205
[38] = test system: HT-29
[39] = test system: SK-MEL-28
[40] = test system: M14
[41] = test system: SK-MEL-5
[42] = test system: SF-268
[43] = test system: OVCAR-5
[44] = test system: HL-60
[45] = test system: NCI/ADR-RES
[46] = test system: IGROV-1
[47] = test system: SW-620
[48] = test system: U-251
[49] = test system: SK-OV-3
[50] = test system: CAKI-1
[51] = test system: 786-0
[52] = test system: RXF 393
[53] = test system: SF-539
[54] = test system: DU-145
[55] = test system: SR
[56] = test system: SNB-75

Which GI50 [1] does the source give for `Sc1nn2c(Cc3ccccc3)nnc2s1` here?
Its GI50 is > 100 µM (inactive).

And the GI50 [2]?
Its GI50 is > 100 µM (inactive).

What about the GI50 [3] of the same compound?
The GI50 was > 100 µM (inactive).

And the GI50 [4]?
Its GI50 is > 100 µM (inactive).

What about the GI50 [5] of the same compound?
Its GI50 is > 100 µM (inactive).

What about the GI50 [6] of the same compound?
The GI50 was > 100 µM (inactive).

What about the GI50 [7] of the same compound?
The GI50 was > 100 µM (inactive).

And the GI50 [8]?
The GI50 was > 100 µM (inactive).

And the GI50 [9]?
The GI50 was > 100 µM (inactive).

What about the GI50 [10] of the same compound?
The GI50 was > 100 µM (inactive).

And the GI50 [11]?
The GI50 was > 100 µM (inactive).

What about the GI50 [12] of the same compound?
Its GI50 is > 100 µM (inactive).

And the GI50 [13]?
Its GI50 is 89.9 µM (inactive).

What about the GI50 [14] of the same compound?
Its GI50 is > 100 µM (inactive).

And the GI50 [15]?
Its GI50 is > 100 µM (inactive).

What about the GI50 [16] of the same compound?
The GI50 was > 100 µM (inactive).

And the GI50 [17]?
Its GI50 is > 100 µM (inactive).

What about the GI50 [18] of the same compound?
The GI50 was > 100 µM (inactive).

What about the GI50 [19] of the same compound?
Its GI50 is > 100 µM (inactive).

What about the GI50 [20] of the same compound?
The GI50 was > 100 µM (inactive).

What about the GI50 [21] of the same compound?
Its GI50 is > 100 µM (inactive).

And the GI50 [22]?
Its GI50 is > 100 µM (inactive).

And the GI50 [23]?
The GI50 was > 100 µM (inactive).

And the GI50 [24]?
The GI50 was > 100 µM.

And the GI50 [25]?
The GI50 was > 100 µM (inactive).

And the GI50 [26]?
The GI50 was > 100 µM (inactive).

What about the GI50 [27] of the same compound?
The GI50 was > 100 µM (inactive).

What about the GI50 [28] of the same compound?
The GI50 was > 100 µM (inactive).

What about the GI50 [29] of the same compound?
The GI50 was > 100 µM (inactive).

What about the GI50 [30] of the same compound?
The GI50 was > 100 µM (inactive).

And the GI50 [31]?
Its GI50 is > 100 µM (inactive).

And the GI50 [32]?
Its GI50 is > 100 µM (inactive).

What about the GI50 [33] of the same compound?
The GI50 was > 100 µM (inactive).

What about the GI50 [34] of the same compound?
Its GI50 is > 100 µM (inactive).

What about the GI50 [35] of the same compound?
Its GI50 is > 100 µM (inactive).

And the GI50 [36]?
Its GI50 is > 100 µM (inactive).

And the GI50 [37]?
The GI50 was > 100 µM (inactive).

What about the GI50 [38] of the same compound?
The GI50 was > 100 µM (inactive).

What about the GI50 [39] of the same compound?
The GI50 was > 100 µM (inactive).

What about the GI50 [40] of the same compound?
Its GI50 is > 100 µM (inactive).

What about the GI50 [41] of the same compound?
The GI50 was > 100 µM (inactive).

And the GI50 [42]?
The GI50 was > 100 µM (inactive).

What about the GI50 [43] of the same compound?
Its GI50 is > 100 µM (inactive).

What about the GI50 [44] of the same compound?
Its GI50 is > 100 µM (inactive).

What about the GI50 [45] of the same compound?
Its GI50 is > 100 µM (inactive).

And the GI50 [46]?
Its GI50 is > 100 µM (inactive).

And the GI50 [47]?
Its GI50 is > 100 µM (inactive).

What about the GI50 [48] of the same compound?
Its GI50 is > 100 µM (inactive).

And the GI50 [49]?
Its GI50 is > 100 µM (inactive).

What about the GI50 [50] of the same compound?
Its GI50 is > 100 µM (inactive).

And the GI50 [51]?
The GI50 was > 100 µM (inactive).

What about the GI50 [52] of the same compound?
Its GI50 is > 100 µM (inactive).

What about the GI50 [53] of the same compound?
The GI50 was > 100 µM (inactive).

What about the GI50 [54] of the same compound?
The GI50 was > 100 µM (inactive).

For `COc1ccc(-c2coc3cc(O)cc(O)c3c2=O)cc1` [BIOCHANIN], which GI50 [3] is on record?
Its GI50 is > 10 µM (inactive).

What about the GI50 [4] of the same compound?
The GI50 was > 10 µM (inactive).

What about the GI50 [5] of the same compound?
Its GI50 is > 10 µM (inactive).

And the GI50 [6]?
The GI50 was > 10 µM (inactive).

What about the GI50 [7] of the same compound?
Its GI50 is > 10 µM (inactive).

What about the GI50 [8] of the same compound?
The GI50 was > 10 µM (inactive).

What about the GI50 [14] of the same compound?
Its GI50 is > 10 µM (inactive).

And the GI50 [15]?
Its GI50 is > 10 µM (inactive).

And the GI50 [17]?
Its GI50 is > 10 µM (inactive).

What about the GI50 [25] of the same compound?
Its GI50 is > 10 µM (inactive).

What about the GI50 [27] of the same compound?
The GI50 was > 10 µM (inactive).

What about the GI50 [29] of the same compound?
Its GI50 is > 10 µM (inactive).

What about the GI50 [32] of the same compound?
The GI50 was > 10 µM (inactive).

What about the GI50 [33] of the same compound?
The GI50 was > 10 µM (inactive).

And the GI50 [55]?
The GI50 was > 10 µM (inactive).

And the GI50 [34]?
The GI50 was > 10 µM (inactive).

And the GI50 [36]?
The GI50 was > 10 µM (inactive).

What about the GI50 [37] of the same compound?
Its GI50 is > 10 µM (inactive).

What about the GI50 [39] of the same compound?
Its GI50 is > 10 µM (inactive).

And the GI50 [40]?
Its GI50 is > 10 µM (inactive).

What about the GI50 [41] of the same compound?
Its GI50 is > 10 µM (inactive).

And the GI50 [42]?
The GI50 was > 10 µM (inactive).

What about the GI50 [43] of the same compound?
The GI50 was > 10 µM (inactive).

What about the GI50 [44] of the same compound?
The GI50 was > 10 µM (inactive).

What about the GI50 [45] of the same compound?
Its GI50 is > 10 µM (inactive).

What about the GI50 [46] of the same compound?
Its GI50 is > 10 µM (inactive).

And the GI50 [47]?
Its GI50 is > 10 µM (inactive).

And the GI50 [48]?
Its GI50 is > 10 µM (inactive).

What about the GI50 [49] of the same compound?
The GI50 was > 10 µM (inactive).

What about the GI50 [50] of the same compound?
Its GI50 is > 10 µM (inactive).

And the GI50 [56]?
Its GI50 is > 10 µM (inactive).

And the GI50 [51]?
Its GI50 is > 10 µM (inactive).

And the GI50 [52]?
Its GI50 is > 10 µM (inactive).
